Measurements published in US12698311B2, “Process for the preparation of an antimicrobial peptide” (INSTITUTE OF BIORESOURCES AND SUSTAINABLE DEVELOPMENT, priority 2020, dated 2026).
No end group written: not given here.

How the values were obtained:
[1] = test system: Candida albicans ATCC 10231, Escherichia coli ATCC 25922, Klebsiella pneumoniae ATCC 4352, Salmonella typhimurium ATCC 14028, Candida tropicalis ATCC 750 and …; assay: Spectrum of antimicrobial activity against AMR pathogens; assay type: cell-based; settings: six ATCC strains listed
Procedure: Spectrum of antimicrobial activity: The spectrum of activity was determined from the selected test pathogens viz. S. aureus ATCC25923, C. ablicans ATCC 10231, and E. coli ATCC 25922 which represented as a Gram (+), Gram (−) and fungal pathogens (FIG. 2). […] The cell debris were removed by centrifugation at 4000 rpm for 15 min at 4° C. The supernatant was harvested for antimicrobial bioassay and preserved at 4° C. for further purification (Fujita et al., 2007). The well loaded with samples that shown a clear halo zone of inhibition (at least 6-7 mm diameter) were taken as positive against the selected Gram (+ve), Gram (−ve) and fungal pathogens. The bacterial endophytic strain IBSD35 isolated from M. pachycarpa has shown a broad-spectrum of AA against the representative test pathogens in the preliminary Spot-on-lawn bioassay and the Cut-well agar diffusion bioassay (FIG. 2). It inferred antifungal, antibacterial and antimicrobial property of the endophyte strain IBSD35.

[2] = Retention of antimicrobial activity after treatment with degradative enzymes; assay type: physicochemical; set-up: key to Activity: (+) retention; (−) loss
Procedure: Effect of Physiological Enzymes:
The purified AMP, Peoriaerin IBSD35 is treated with proteolytic enzymes, it can withstand against enzymes and its antimicrobial activity was checked by measuring the zone of inhibition as shown in Table 3 below.

[3] = assay type: cell-based; settings: broth dilution bioassay
Procedure: The peptides were recovered by lyophilization and stored at −20° C. until further use. The MIC of the RP-HPLC purified bioactive metabolite was determined to be 0.0365 μg μl^−1 with broth dilution bioassay. The two peaks were detected in the selected wavelengths of λ280 nm, λ205 nm and λ214 nm. However, only the peak 1 was selected for further study as it had shown more potency in antimicrobial susceptibility test.

[4] = Retention of antimicrobial activity after treatment with inorganic solvents and temperature; assay type: physicochemical; set-up: key to Activity: (+) retention; (−) loss
Excerpt: Effect of Temperature and Inorganic Solvents:
The AMP, Peoriaerin IBSD35 is a very stable biomolecule and works on a wide range of temperature and pH and withstand against inorganic solvents as shown in Table 2 below.

[5] = Retention of antimicrobial activity after treatment with detergents; assay type: physicochemical; set-up: key: (+) retention; (−) loss
Procedure: The surfactants such as sodium dodecyl sulphate (SDS), Tween 20, Tween 80 and Triton X were incubated with the anti-microbial compound, Peoriaerin IBSD35.

With “GFEFAGAGNGVGRVNSATDATYGLGVFLDAGDNNLAKNAESTGYNDANAVTVTK [Peoriaerin IBSD35]” the “antimicrobial activity against gram positive, gram negative and fungal anti-microbial resistant pathogens” value [1] was “strong and broad spectrum of antimicrobial activity”, the Activity ([2]; after Catalase) was “+” and the Activity ([2]; after Cellulase) was “+”. For the same sequence, the Activity ([2]; after Pectinase) was “+”, the Activity ([2]; after Pepsin) was “+” and the Activity ([2]; after Proteinase K (1 mg/ml)) was “+”. The “Zone of inhibition diameter” value ([2]; after Proteinase K (1 mg/ml)) was 11 mm, the MIC [3] was 36.5 µg/mL and the “stable at a pH in the range” value [4] was 4-9. For the same sequence, the Activity ([4]; after Acetone (1:1)) was “+”, the Activity ([4]; after Butanol (1:1)) was “+” and the Activity ([4]; after Ethyl acetate (1:1)) was “+”. For the same sequence, the Activity ([4]; after Isopropanol (1:1)) was “+”, the Activity ([4]; after Methanol (1:1)) was “+” and the Activity ([4]; after Petroleum ether (1:1)) was “+”. For the same sequence, the Activity ([4]; after Temperature 20 ° C.) was “+”, the Activity ([4]; after Temperature 40 ° C.) was “+” and the Activity ([4]; after Temperature 60 ° C.) was “+”. For the same sequence, the Activity ([4]; after Temperature 80 ° C.) was “+”, the Activity ([4]; after Temperature 100 ° C.) was “+” and the Activity ([4]; after Temperature 121 ° C.) was “+”. The Activity ([5]; after SDS (1:1)) was “+”, the Activity ([5]; after Triton X (1:1)) was “+” and the Activity ([5]; after Tween 20 (1:1)) was “+”. For the same sequence, the Activity ([5]; after Tween 80 (1:1)) was “+”.
